In patent publication US7514432B2, “Compounds and methods of treating cell proliferative diseases, retinopathies and arthritis” (Exonhit Therapeutics SA, priority 2003, dated 2009):

Legend:
HMEC1 = experiment: Cell viability assay (MTT), HMEC1; format: cell-based, Human; details: MTT, 10% FBS, 6-day treatment, 1% DMSO
Procedure: (§1) Table 12: 6-day cell viability assay (MTT) in the presence of 10% Fetal Bovine Serum and 1% DMSO, in HMEC1, HCT116, MDA-MB-231, MCF7 and NIH3T3 cell lines. 3 10^3 to 15 10^3 cells were seeded in 48-well plates in growth medium containing 10% FBS, with or without various concentrations of test compounds. Cell cultures were fed every 3 days with the appropriate media. Cell viability was determined on day 6. Data were analyzed and IC50s were calculated from dose-response curves using GraphPad Prism. Results summarized in the tables are mean±SEM of 1 to 8 independent experiments.
(§2) In order to determine a compound's effect on cell viability, microculture tetrazolium assays (MTT) were performed as described by Carmichael et al. (1996) with modifications. Four human tumoral cell lines, namely HCT116 colon adenocarcinoma, H460 lung carcinoma, MCF-7 and MDA-MB-231 breast carcinoma cell lines, DLD1 colorectal adenocarcinoma, HeLa adenocarcinoma, HepG2 hepatocellular carcinoma. 3 immortalized but non tumorigenic cell lines, namely NIH3T3 mouse fibroblasts (American Type Culture Collection) and primary hepatocytes (Biopredic international), cultured according to their recommendations together with Human Microvasculature Endothelial Cell line HMEC1 (National Center for Infectious Diseases). Briefly, cells were seeded in 48-well plates 24 hours before drug addition. Cells were treated with 0 to 200 μM (11 concentrations) of compound solubilized in DMSO, adjusting the final concentration of DMSO to 1% in the well. 16 hours, and three or six days after treatment, 0.5 mg/ml MTT (Sigma) was added to the medium and cells were incubated for 1-5 hours at 37° C. before solubilization of formazan crystals in 100% DMSO. Absorbance was measured using a spectrophotometer at a wavelength of 550 nm. Data was analyzed using the GraphPad Prism software (GraphPad Software, Inc.), and IC50 (dose leading to 50% cell death) was calculated from the dose-response curves.

HCT116 = experiment: Cell viability assay (MTT), HCT116; format: cell-based, human; details: 10% FBS, 6-day treatment, 1% DMSO
Procedure: as §1
(§3) Table 13: 6-day cell viability assay (MTT) in the presence of 0.5% Fetal Bovine Serum and 1% DMSO, in HCT116 and MDA-MB-231 cell lines. 7.5 10^4 to 15 10^4 cells were seeded in 48-well plates in growth medium containing 10% FBS, with or without various concentrations of test compounds. Cell cultures were fed every 3 days with the appropriate media. Cell viability was determined on day 6. Data were analyzed and IC50s were calculated from dose-response curves using GraphPad Prism. Results summarized in the tables are mean±SEM of 1 to 2 independent experiments.
(§4) Table 14: 3-day cell viability assay (MTT) in the presence of 10% Fetal Bovine Serum and 1% DMSO, in DLD1, HCT116, MDA-MB-231, MCF7 and HeLa cells. 7.5 10^3 to 1.5 10^4 cells were seeded in 48-well plates in growth medium containing 10% FBS, with or without various concentrations of test compounds. Data were analyzed and IC50s were calculated from dose-response curves using GraphPad Prism. Results summarized in the tables are mean±SEM of 1 to 7 independent experiments.
(§5) Table 15: 16-hour cell viability assay (MTT) in the presence of 10% Fetal Bovine Serum and 1% DMSO, in HCT116, MDA-MB-231, NIH3T3, HepG2 and primary hepatocytes. 5 10^4 to 10 10^4 cells were seeded in 48-well plates in growth medium containing 10% FBS, with or without various concentrations of test compounds. Data were analyzed and IC50s were calculated from dose-reponse curves using GraphPad Prism. Results summarized in the tables are mean±SEM of 1 to 2 independent experiments.
as §2

NIH 3T3 = experiment: Cell viability assay (MTT), NIH 3T3; format: cell-based, mouse; details: Mus musculus, NIH3T3, 144 h, 10% FBS, 6-day treatment, 1% DMSO
Procedure: as §1, §5, §2

MDA-MB-231 = experiment: Cell viability assay (MTT), MDA-MB-231; format: cell-based, human; details: Homo sapiens, MDA-MB-231, 144 h, 10% FBS, 6-day treatment, 1% DMSO, read-out: IC50 μM, MDA-MB-231
Procedure: as §1, §3, §4, §5, §2

| SMILES | IC50 (HCT116) [µM] | IC50 (HCT116; Homo sapiens, HCT-116, 144 h) [µM] | melting point | IC50 (MDA-MB-231) [µM] | IC50 (HMEC1; Homo sapiens, HMEC-1, 144 h) [µM] | IC50 (HMEC1) [µM] | IC50 (NIH 3T3) [µM] |
| --- | --- | --- | --- | --- | --- | --- | --- |
| CN1CCN(Cc2cc(=O)c(OCCCCCOc3ncnc4ccccc34)co2)CC1 [EHT 4063, 5-(5-(Quinazolin-4-yloxy)pentyloxy)-2-((4-methylpiperazin-1-yl)methyl)-4H-pyran-4-one] |  | ~200 | 78.2 °C |  | ~200 |  |  |
| Cl.Cl.Cl.O=c1cc(CN2CCNCC2)occ1OCCCCCOc1ccnc2cc(Cl)ccc12 [EHT 0872, 5-(5-(7-Chloroquinolin-4-yloxy)pentyloxy)-2-((piperazin-1-yl)methyl)-4H-pyran-4-one trihydrochloride] |  | 9.3 | 164.7 °C |  | 28.4 |  |  |
| O=c1cc(COC2CCCCO2)occ1OCCCCSc1ccnc2cc(C(F)(F)F)ccc12 (stereo not drawn) [EHT 4745, 2-(Tetrahydro-pyran-2-yloxymethyl)-5-[4-(7-trifluoromethyl-quinolin-4-ylsulfanyl)-butoxy]-4H-pyran-4-one] |  | 4.1 | 97.3 °C (dec.) |  | < 10 | 9.8 |  |
| CC(C)(C)OC(=O)N1CCN(Cc2cc(=O)c(OCCCCCOc3ccnc4cc(Cl)ccc34)co2)CC1 [EHT 2580, tert-Butyl 4-((5-(5-(7-chloroquinolin-4-yloxy)pentyloxy)-4-oxo-4H-pyran-2-yl)methyl)piperazine-1-carboxylate] |  |  | 130.2 °C |  |  |  |  |
| COCOCc1cc(=O)c(OCCCCCSc2ccnc3cc(C(F)(F)F)ccc23)co1 [EHT 2168, 2-Methoxymethoxymethyl-5-[5-(7-trifluoromethyl-quinolin-4-ylsulfanyl)-pentyloxy]-4H-pyran-4-one] |  | 6 | 122.1 °C (dec.) |  | 19.3 |  |  |
| O=c1cc(COC2CCCCO2)occ1OCCCCCCCCSc1ccnc2cc(C(F)(F)F)ccc12 (stereo not drawn) [EHT 1006, 5-(8-(7-(Trifluoromethyl)quinolin-4-ylthio)octyloxy)-2-((tetrahydro-2H-pyran-2-yloxy)methyl)-4H-pyran-4-one] |  |  | 66.1 °C |  | < 10 | 9.5 |  |
| CCN(CC)Cc1cc(=O)c(OCCCCCSc2ccnc3cc(C(F)(F)F)ccc23)co1 [EHT 7370, 2-((Diethylamino)methyl)-5-(5-(7-(trifluoromethyl)quinolin-4-ylthio)pentyloxy)-4H-pyran-4-one] |  | 4.4 | 71.2 °C |  | 12.1 |  |  |

Now from value to compound, other results behind:

| IC50 (HCT116) [µM] | IC50 (HCT116; Homo sapiens, HCT-116, 144 h) [µM] | melting point | IC50 (MDA-MB-231) [µM] | SMILES | IC50 (HMEC1; Homo sapiens, HMEC-1, 144 h) [µM] | IC50 (HMEC1) [µM] | IC50 (NIH 3T3) [µM] |
| --- | --- | --- | --- | --- | --- | --- | --- |
| 2.3 | < 4 | 99.5 °C |  | CC(=O)N1CCN(Cc2cc(=O)c(OCCCCCSc3ccnc4cc(C(F)(F)F)ccc34)co2)CC1 [EHT 3980, 5-(5-(7-(Trifluoromethyl)quinolin-4-ylthio)pentyloxy)-2-((4-acetylpiperazin-1-yl)methyl)-4H-pyran-4-one] | 38.5 |  |  |
|  |  | 67.8 °C |  | O=c1cc(COC2CCCCO2)occ1OCCCCCCSc1ccnc2cc(C(F)(F)F)ccc12 (stereo not drawn) [EHT 6271, 2-(Tetrahydro-pyran-2-yloxymethyl)-5-[6-(7-trifluoromethyl-quinolin-4-ylsulfanyl)-hexyloxy]-4H-pyran-4-one] | < 10 | 9 |  |
|  |  | 66.3 °C |  | CS(=O)(=O)N1CCN(Cc2cc(=O)c(OCCCCCSc3ccnc4cc(C(F)(F)F)ccc34)co2)CC1 [EHT 8366, 5-(5-(7-(Trifluoromethyl)quinolin-4-ylthio)pentyloxy)-2-((4-Methylsulfonylpiperazin-1-yl)methyl)-4H-pyran-4-one] |  |  |  |
|  | 12.1 | 107 °C |  | O=c1cc(CF)occ1OCCCCCSc1ccnc2cc(C(F)(F)F)ccc12 [EHT 8817, 5-(5-(7-(Trifluoromethyl)quinolin-4-ylthio)pentyloxy)-2-(fluoromethyl)-4H-pyran-4-one] | 41 |  |  |
|  |  | 133.2 °C (dec.) |  | O=c1cc(CO)occ1OCCCCCSc1ccnc2cc(C(F)(F)F)ccc12 [EHT 5909, 2-Hydroxymethyl-5-[5-(7-trifluoromethyl-quinolin-4-ylsulfanyl)-pentyloxy]-4H-pyran-4-one] |  |  |  |
|  |  | 38.2 °C |  | O=c1cc(CCl)occ1OCCCCCSc1ccnc2cc(C(F)(F)F)ccc12 [EHT 1494, 2-Chloromethyl-5-[5-(7-trifluoromethyl-quinolin-4-ylsulfanyl)-pentyloxy]-4H-pyran-4-one] |  |  |  |
|  | 101 | 125.6 °C |  | O=c1cc(CN2CCOCC2)occ1OCCOc1ccnc2cc(C(F)(F)F)ccc12 [EHT 6892, 5-(2-(7-(trifluoromethyl)quinolin-4-yloxy)ethoxy)-2-(morpholinomethyl)-4H-pyran-4-one] |  |  |  |
|  | 15.5 | 71.6 °C | 13.5 | O=c1cc(CN2CCOCC2)occ1OCc1ccccc1CSc1ccnc2cc(C(F)(F)F)ccc12 [EHT 9069, 5-((2-((7-(Trifluoromethyl)quinolin-4-ylthio)methyl)phenyl)methoxy)-2-(morpholinomethyl)-4H-pyran-4-one] | 34.8 |  | 41.3 |
| 2.3 | < 4 | 108.9 °C |  | O=c1cc(CN2CCCCC2)occ1OCCCCCSc1ccnc2cc(C(F)(F)F)ccc12 [EHT 9317, 5-(5-(7-(Trifluoromethyl)quinolin-4-ylthio)pentyloxy)-2-((piperidin-1-yl)methyl)-4H-pyran-4-one] | 11.7 |  |  |
|  |  | 126.8 °C |  | O=C(CCCCOc1coc(CN2CCOCC2)cc1=O)Nc1ccnc2cc(C(F)(F)F)ccc12 [EHT 6037, 5-(6-(Morpholinomethyl)-4-oxo-4H-pyran-3-yloxy)-N-(7-(trifluoromethyl)quinolin-4-yl)pentanamide] |  |  |  |
